Numbered stars: 1 amine (or outer) side, 2 acyl side, 3 side chain; on linkers, the order of the positions; unused ones are H or OH. Bridge positions count the residues as written; N and C are the ends. Square brackets hold non-standard residues; d marks the D form. Peptide text beside a SMILES is read from it. * marks the point of attachment. hTyr(3S-OH,4S-OH,3'-OSO3H) = N[C@H](C(=O)O)[C@H](O)[C@@H](O)c1ccc(O)c(OS(=O)(=O)O)c1; Orn(4R-OH,5R-OH) = O=C([C@H](C[C@@H](O)[C@@H](O)N[*:3])N[*:1])[*:2]; Pro(3S-OH,4S-Me) = C[C@H]1CN[C@H](C(=O)O)[C@H]1O; X1 = CCCCCOc1ccc(-c2cc(-c3ccc(C(=O)*)cc3)no2)cc1; Gln(3R-OH) = NC(=O)C[C@@H](O)[C@H](N)C(=O)O; Hyp = O=C(O)[C@@H]1C[C@@H](O)CN1
Assay: Purity and stability test: samples sealed at 25° C. for 30 days, purity by HPLC
Assay type: physicochemical
Settings: for Purity of initial sample: before storage, HPLC purity (baseline of the stability test); for Purity of sample after stored at 25° C. for 30 days: sealed, HPLC purity
Text: High performance liquid chromatography (HPLC) is a common method for determining the purity of a compound, wherein a liquid is used as the mobile phase and a high-pressure transfusion system is used for pumping the mobile phase, such as single solvents with different polarities, a mixture of solvents at different proportions, or buffers, into a column packed with a stationary phase. Each component is separated in the column, and then enters into a detector for detection, thereby analyzing a sample. In the present invention, HPLC is used for determining the purity of the compound of formula I and studying the stability of a sample. The HPLC method is as follows:
Analysis Column: YMC-ODS 250×4.6 mm, 5 μm;
Mobile phase: acetonitrile:phosphate buffer (pH 3.0)=45:70;
Column temperature: 35° C.;
Diluent: aqueous phosphate buffer;
Detection wavelength: 210 nm;
In this Example, the purity and stability of the samples obtained in Comparative Examples and Examples were compared. The method used is as follows:
Crystals A-C of the compound of formula I prepared in Examples 2, 11 and 15, the crystal of B82 type obtained in Comparative Example 1 and the amorphous solid obtained in Example 1 were taken respectively and sealed at 25° C. for 30 days. And then the content of impurities in the sample was analyzed. Results of comparing the stability of crystals A-C of the compound of formula I according to the present invention, the crystal of B82 type and the amorphous solid are shown in the following table: […]

Row | Structure (SMILES) | Purity of initial sample [%] | Purity of sample after stored at 25° C. for 30 days [%] | stability compared with the B82-type crystal and the amorphous solid (result in words)
1 | CCCCCOc1ccc(-c2cc(-c3ccc(C(=O)N[C@H]4C[C@@H](O)[C@@H](O)NC(=O)[C@@H]5[C@@H](O)[C@@H](C)CN5C(=O)[C@H]([C@H](O)CC(N)=O)NC(=O)[C@H]([C@H](O)[C@@H](O)c5ccc(O)c(OS(=O)(=O)[O-])c5)NC(=O)[C@@H]5C[C@@H](O)CN5C(=O)[C@H]([C@@H](C)O)NC4=O)cc3)no2)cc1.[Na+] [Amorphous solid, Sodium 5-[(1S,2S)-2-[(3S,6S,9S,11R,15S,18S,20R,21R,24S,25S,26S)-3-[(R)-2-carbamoyl-1-hydroxyethyl]-11,20,21,25-tetrahydroxy-15-[(R)-1-hydroxyethyl]-26-methyl-2,5,8,14,17,23-hexaoxo-18-[4-[5-(4-pentoxyphenyl)isoxazol-3-yl]benzoylamino]-1,4,7,13,16,22-hexaazatricyclo[22.3.0.0^9,13]heptacosan-6-yl]-1,2-dihydroxyethyl]-2-hydroxy phenyl sulfate., reference compound] (X1-[Orn(4R-OH,5R-OH)]T[Hyp][hTyr(3S-OH,4S-OH,3'-OSO3H)][Gln(3R-OH)][Pro(3S-OH,4S-Me)]; lactam 1-C) | 99.38 | 89.27 | –
2 | CCCCCOc1ccc(-c2cc(-c3ccc(C(=O)N[C@H]4C[C@@H](O)[C@@H](O)NC(=O)[C@@H]5[C@@H](O)[C@@H](C)CN5C(=O)[C@H]([C@H](O)CC(N)=O)NC(=O)[C@H]([C@H](O)[C@@H](O)c5ccc(O)c(OS(=O)(=O)[O-])c5)NC(=O)[C@@H]5C[C@@H](O)CN5C(=O)[C@H]([C@@H](C)O)NC4=O)cc3)no2)cc1.[Na+] [B82-type Crystal, Sodium 5-[(1S,2S)-2-[(3S,6S,9S,11R,15S,18S,20R,21R,24S,25S,26S)-3-[(R)-2-carbamoyl-1-hydroxyethyl]-11,20,21,25-tetrahydroxy-15-[(R)-1-hydroxyethyl]-26-methyl-2,5,8,14,17,23-hexaoxo-18-[4-[5-(4-pentoxyphenyl)isoxazol-3-yl]benzoylamino]-1,4,7,13,16,22-hexaazatricyclo[22.3.0.0^9,13]heptacosan-6-yl]-1,2-dihydroxyethyl]-2-hydroxy phenyl sulfate., reference compound] (X1-[Orn(4R-OH,5R-OH)]T[Hyp][hTyr(3S-OH,4S-OH,3'-OSO3H)][Gln(3R-OH)][Pro(3S-OH,4S-Me)]; lactam 1-C) | 99.50 | 96.98 | –
3 | CCCCCOc1ccc(-c2cc(-c3ccc(C(=O)N[C@H]4C[C@@H](O)[C@@H](O)NC(=O)[C@@H]5[C@@H](O)[C@@H](C)CN5C(=O)[C@H]([C@H](O)CC(N)=O)NC(=O)[C@H]([C@H](O)[C@@H](O)c5ccc(O)c(OS(=O)(=O)[O-])c5)NC(=O)[C@@H]5C[C@@H](O)CN5C(=O)[C@H]([C@@H](C)O)NC4=O)cc3)no2)cc1.[Na+] [Crystal A, Sodium 5-[(1S,2S)-2-[(3S,6S,9S,11R,15S,18S,20R,21R,24S,25S,26S)-3-[(R)-2-carbamoyl-1-hydroxyethyl]-11,20,21,25-tetrahydroxy-15-[(R)-1-hydroxyethyl]-26-methyl-2,5,8,14,17,23-hexaoxo-18-[4-[5-(4-pentoxyphenyl)isoxazol-3-yl]benzoylamino]-1,4,7,13,16,22-hexaazatricyclo[22.3.0.0^9,13]heptacosan-6-yl]-1,2-dihydroxyethyl]-2-hydroxy phenyl sulfate.] (X1-[Orn(4R-OH,5R-OH)]T[Hyp][hTyr(3S-OH,4S-OH,3'-OSO3H)][Gln(3R-OH)][Pro(3S-OH,4S-Me)]; lactam 1-C) | 99.68 | 99.65 | significantly superior than that of the crystal of B82 type
4 | CCCCCOc1ccc(-c2cc(-c3ccc(C(=O)N[C@H]4C[C@@H](O)[C@@H](O)NC(=O)[C@@H]5[C@@H](O)[C@@H](C)CN5C(=O)[C@H]([C@H](O)CC(N)=O)NC(=O)[C@H]([C@H](O)[C@@H](O)c5ccc(O)c(OS(=O)(=O)[O-])c5)NC(=O)[C@@H]5C[C@@H](O)CN5C(=O)[C@H]([C@@H](C)O)NC4=O)cc3)no2)cc1.[Na+] [Crystal B, Sodium 5-[(1S,2S)-2-[(3S,6S,9S,11R,15S,18S,20R,21R,24S,25S,26S)-3-[(R)-2-carbamoyl-1-hydroxyethyl]-11,20,21,25-tetrahydroxy-15-[(R)-1-hydroxyethyl]-26-methyl-2,5,8,14,17,23-hexaoxo-18-[4-[5-(4-pentoxyphenyl)isoxazol-3-yl]benzoylamino]-1,4,7,13,16,22-hexaazatricyclo[22.3.0.0^9,13]heptacosan-6-yl]-1,2-dihydroxyethyl]-2-hydroxy phenyl sulfate.] (X1-[Orn(4R-OH,5R-OH)]T[Hyp][hTyr(3S-OH,4S-OH,3'-OSO3H)][Gln(3R-OH)][Pro(3S-OH,4S-Me)]; lactam 1-C) | 99.55 | 99.50 | –
5 | CCCCCOc1ccc(-c2cc(-c3ccc(C(=O)N[C@H]4C[C@@H](O)[C@@H](O)NC(=O)[C@@H]5[C@@H](O)[C@@H](C)CN5C(=O)[C@H]([C@H](O)CC(N)=O)NC(=O)[C@H]([C@H](O)[C@@H](O)c5ccc(O)c(OS(=O)(=O)[O-])c5)NC(=O)[C@@H]5C[C@@H](O)CN5C(=O)[C@H]([C@@H](C)O)NC4=O)cc3)no2)cc1.[Na+] [Crystal C, Sodium 5-[(1S,2S)-2-[(3S,6S,9S,11R,15S,18S,20R,21R,24S,25S,26S)-3-[(R)-2-carbamoyl-1-hydroxyethyl]-11,20,21,25-tetrahydroxy-15-[(R)-1-hydroxyethyl]-26-methyl-2,5,8,14,17,23-hexaoxo-18-[4-[5-(4-pentoxyphenyl)isoxazol-3-yl]benzoylamino]-1,4,7,13,16,22-hexaazatricyclo[22.3.0.0^9,13]heptacosan-6-yl]-1,2-dihydroxyethyl]-2-hydroxy phenyl sulfate.] (X1-[Orn(4R-OH,5R-OH)]T[Hyp][hTyr(3S-OH,4S-OH,3'-OSO3H)][Gln(3R-OH)][Pro(3S-OH,4S-Me)]; lactam 1-C) | 99.64 | 99.43 | –
